From US4218442A, “1-Epi-fortimicin A and derivatives” (Abbott Laboratories, priority 1979, dated 1980)
Structures can show the parent of a compound that is named as a salt. Where two headings read alike, the source gives them in different places.

Tests used:
Assay in all cases: MIC, two-fold agar dilution, Mueller-Hinton agar
Assay type in all cases: cell-based
[1] = system: Providencia stuartii 1577; details: read-out: minimum inhibitory concentration (MIC)
Experimental: (§1) The in vitro antibiotic activity is determined by a two-fold dilution test using Mueller-Hinton agar, 10 ml per Petri plate. The inoculum of approximately 1×10^5 of the indicated test organism is delivered by the Steer's replicator. The test is incubated at 37° C. for 24 hours.

[2] = system: Staphylococcus aureus Smith; details: read-out: minimum inhibitory concentration (MIC)
Experimental: as §1

[3] = system: Streptococcus faecalis 10541; details: read-out: minimum inhibitory concentration (MIC)
Experimental: as §1

Proteus vulgaris JJ = details: read-out: minimum inhibitory concentration (MIC)
Experimental: as §1

Serratia marcescens 4003 = details: read-out: minimum inhibitory concentration (MIC)
Experimental: as §1

[4] = system: Pseudomonas aeruginosa KY 8512; details: read-out: minimum inhibitory concentration (MIC)
Experimental: as §1

[5] = system: Enterobacter aerogenes 13048; details: read-out: minimum inhibitory concentration (MIC)
Experimental: as §1

[6] = system: Klebsiella pneumoniae 10031; details: read-out: minimum inhibitory concentration (MIC)
Experimental: as §1

[7] = system: Pseudomonas aeruginosa BMH #10; details: read-out: minimum inhibitory concentration (MIC)
Experimental: as §1

[8] = system: Klebsiella pneumoniae KY 4262; details: read-out: minimum inhibitory concentration (MIC)
Experimental: as §1

Shigella sonnei 9290 = details: 37° C., 24 hours, read-out: minimum inhibitory concentration (MIC)
Experimental: as §1

[9] = system: Escherichia coli BL 3676(RES); details: read-out: minimum inhibitory concentration (MIC)
Experimental: as §1

[10] = system: Pseudomonas aeruginosa KY 8516; details: read-out: minimum inhibitory concentration (MIC)
Experimental: as §1

[11] = system: Pseudomonas aeruginosa 209; details: read-out: minimum inhibitory concentration (MIC)
Experimental: as §1

[12] = system: Salmonella typhimurium Ed. #9; details: Salmonella enterica, read-out: minimum inhibitory concentration (MIC)
Experimental: as §1

[13] = system: Pseudomonas aeruginosa 27853; details: read-out: minimum inhibitory concentration (MIC)
Experimental: as §1

Escherichia coli 76-2 = details: read-out: minimum inhibitory concentration (MIC)
Experimental: as §1

Proteus rettgeri U-6333 = details: Providencia rettgeri, read-out: minimum inhibitory concentration (MIC)
Experimental: as §1

Escherichia coli JUHL = details: read-out: minimum inhibitory concentration (MIC)
Experimental: as §1

Proteus mirabilis Fin #9 = details: read-out: minimum inhibitory concentration (MIC)
Experimental: as §1

C[C@H](N)[C@@H]1CC[C@@H](N)[C@@H](O[C@@H]2[C@H](N)[C@H](O)[C@H](O)[C@@H](N(C)C(=O)CN)[C@H]2O)O1 [Ex. 13, 1-Epi-3-O-demethylfortimicin A tetrahydrochloride]
MIC ([1]; Providencia stuartii 1577, 37° C., 24 hours): 6.2 µg/mL
MIC ([2]; Staphylococcus aureus Smith, 37° C., 24 hours): 0.78 µg/mL
MIC ([3]; Enterococcus faecalis, Streptococcus faecalis 10541, 37° C., 24 hours): 50 µg/mL
MIC (Proteus vulgaris JJ; Proteus vulgaris JJ, 37° C., 24 hours): 3.1 µg/mL
MIC (Serratia marcescens 4003; Serratia marcescens 4003, 37° C., 24 hours): 3.1 µg/mL
MIC ([4]; KY8512, Pseudomonas aeruginosa KY 8512, 37° C., 24 hours): 6.2 µg/mL
MIC ([5]; Klebsiella aerogenes, Enterobacter aerogenes 13048, 37° C., 24 hours): 3.1 µg/mL
MIC ([6]; Klebsiella pneumoniae 10031, 37° C., 24 hours): 3.1 µg/mL
MIC ([7]; Pseudomonas aeruginosa BMH #10, 37° C., 24 hours): 0.78 µg/mL
MIC ([8]; KY4262, Klebsiella pneumoniae KY 4262, 37° C., 24 hours): 6.2 µg/mL
MIC (Shigella sonnei 9290): 12.5 µg/mL
MIC ([9]; Escherichia coli BL 3676(RES), 37° C., 24 hours): 25 µg/mL
MIC ([10]; KY8516, Pseudomonas aeruginosa KY 8516, 37° C., 24 hours): 25 µg/mL
MIC ([11]; Pseudomonas aeruginosa 209, 37° C., 24 hours): 100 µg/mL
MIC ([12]; Salmonella typhimurium Ed. #9, 37° C., 24 hours): 3.1 µg/mL
MIC ([13]; Pseudomonas aeruginosa 27853, 37° C., 24 hours): 6.2 µg/mL
MIC (Escherichia coli 76-2; 762, Escherichia coli 76-2, 37° C., 24 hours): 3.1 µg/mL
MIC (Proteus rettgeri U-6333; U6333, Proteus rettgeri U-6333, 37° C., 24 hours): 3.1 µg/mL
MIC (Escherichia coli JUHL; Escherichia coli JUHL, 37° C., 24 hours): 6.2 µg/mL
MIC (Proteus mirabilis Fin #9; Proteus mirabilis Fin #9, 37° C., 24 hours): 6.2 µg/mL

CO[C@H]1[C@@H](O)[C@@H](N)[C@@H](O[C@H]2O[C@H]([C@H](C)N)CC[C@H]2N)[C@H](O)[C@@H]1N(C)C(=O)CN [Ex. 3, 1-Epi-fortimicin A tetrahydrochloride]
MIC ([1]; Providencia stuartii, 1577, 24 h): 3.1 µg/mL
MIC ([2]; Staphylococcus aureus, 24 h): 1.56 µg/mL
MIC ([3]; Enterococcus faecalis, 10541, 24 h): 100 µg/mL
MIC (Proteus vulgaris JJ; Proteus vulgaris, 24 h): 12.5 µg/mL
MIC (Serratia marcescens 4003; Serratia marcescens, 4003, 24 h): 3.1 µg/mL
MIC ([4]; Pseudomonas aeruginosa, KY8512, 24 h): 25 µg/mL
MIC ([5]; Klebsiella aerogenes, 13048, 24 h): 6.2 µg/mL
MIC ([6]; Klebsiella pneumoniae, 10031, 24 h): 3.1 µg/mL
MIC ([7]; Pseudomonas aeruginosa, 24 h): 0.78 µg/mL
MIC ([8]; Klebsiella pneumoniae, KY4262, 24 h): 6.2 µg/mL
MIC (Shigella sonnei 9290): 12.5 µg/mL
MIC ([9]; Escherichia coli, 24 h): 50 µg/mL
MIC ([10]; Pseudomonas aeruginosa, KY8516, 24 h): 100 µg/mL
MIC ([11]; Pseudomonas aeruginosa, 209, 24 h): 100 µg/mL
MIC ([12]; TYPHIMURIUM, 24 h): 3.1 µg/mL
MIC ([13]; Pseudomonas aeruginosa, 27853, 24 h): 50 µg/mL
MIC (Escherichia coli 76-2; Escherichia coli, 762, 24 h): 6.2 µg/mL
MIC (Proteus rettgeri U-6333; U6333, 24 h): 3.1 µg/mL
MIC (Escherichia coli JUHL; Escherichia coli, 24 h): 12.5 µg/mL
MIC (Proteus mirabilis Fin #9; Proteus mirabilis, 24 h): 12.5 µg/mL
